The term TGI denotes the concentration at which net growth stops. The GI50 is the concentration giving 50% growth inhibition.

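In this assay, cells in 96-well plates receive the compound at five concentrations for 48 hours. Endpoints are linearly interpolated between the surrounding concentrations. Abbreviation: GI50, concentration required for 50% inhibition of growth. TGI marks complete inhibition of growth.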 Some results are limits rather than exact numbers.

Some test systems named below: NCI/ADR-RES ovarian; SNB-78 CNS; MCF7 breast; KM20L2 colon; BT-549 breast; DMS 273 small cell lung; PC-3 prostate; LXFL 529 NSCLC; M19-MEL melanoma; HS 578T breast.
Common to all, as to assay: DTP human tumour cell line panel, 48 h

In the case of `COc1ccc(CCc2cc(OC)c(OC)c(OC)c2)cc1`, the TGI is greater than 100 µM with NCI/ADR-RES ovarian; 0.0976 µM in the assay with SNB-78 CNS; greater than 100 µM in the assay on MCF7 breast; 0.049 µM in the assay on KM20L2 colon; greater than 100 µM in the assay on BT-549 breast; 1.43 µM with DMS 273 small cell lung. Further, the TGI with PC-3 prostate is greater than 62.6 µM; in the assay with LXFL 529 NSCLC, 21 µM; in the assay on M19-MEL melanoma, greater than 100 µM; with HS 578T breast, greater than 100 µM.
Turning to `COc1ccc2nc3ccccc3c(NCCCCN(C)CCCl)c2c1`, the TGI with SNB-78 CNS was 0.674 µM; in the assay with MCF7 breast it was 0.172 µM; with KM20L2 colon, 0.478 µM; in the assay with BT-549 breast, 1.98 µM; with DMS 273 small cell lung, 0.283 µM; in the assay with LXFL 529 NSCLC it was 0.189 µM. In the assay on M19-MEL melanoma, the TGI is 0.602 µM.
For the molecule `COc1ccccc1NC(=O)C(CC(C(=O)Nc1ccccc1OC)/C(C)=N/Nc1ccc([N+](=O)[O-])cc1[N+](=O)[O-])/C(C)=N/Nc1ccc([N+](=O)[O-])cc1[N+](=O)[O-]` (configuration not stated), the concentration for total growth inhibition (TGI) with SNB-78 CNS, with KM20L2 colon, in the assay on DMS 273 small cell lung, in the assay with LXFL 529 NSCLC and in the assay with M19-MEL melanoma was greater than 100 µM throughout.
On to `COc1cc2cc3c4c(cc(OC)c(OC)c4c2cc1OC)CCN3C(=O)CCC(=O)NCCCN(C)C`, for which the TGI was greater than 100 µM with SNB-78 CNS; 67 µM in the assay with KM20L2 colon; greater than 100 µM with DMS 273 small cell lung; greater than 100 µM in the assay on LXFL 529 NSCLC; 55.4 µM in the assay with M19-MEL melanoma.
Turning to `O=C1c2ccccc2C(=O)c2nc3ccc(Cl)cc3cc21`, the TGI with SNB-78 CNS, with KM20L2 colon, with DMS 273 small cell lung, in the assay with LXFL 529 NSCLC and with M19-MEL melanoma was greater than 100 µM each time.
Regarding `CCSC(SCC)=C1C(=O)N(c2ccccc2)N=C1C`, the TGI with SNB-78 CNS was 46.3 µM; with KM20L2 colon it was 30.5 µM; in the assay on DMS 273 small cell lung, 32 µM; in the assay with LXFL 529 NSCLC, 22.6 µM; in the assay on M19-MEL melanoma, 1.83 µM.
With `O=C(Nc1cccc(NC(=O)c2cc(=O)c3ccccc3o2)n1)c1cc(=O)c2ccccc2o1`, the TGI was greater than 100 µM with SNB-78 CNS; greater than 100 µM with KM20L2 colon; 57.8 µM with DMS 273 small cell lung; greater than 100 µM in the assay on LXFL 529 NSCLC; greater than 100 µM in the assay on M19-MEL melanoma.
For `COc1cc(/C=C(\C#N)C(N)=C(C#N)C#N)cc(O)c1O`, the TGI in the assay with NCI/ADR-RES ovarian, with SNB-78 CNS, in the assay on MCF7 breast, in the assay on KM20L2 colon, in the assay on BT-549 breast and in the assay on DMS 273 small cell lung was greater than 100 µM throughout. In addition, the TGI in the assay on PC-3 prostate, with LXFL 529 NSCLC, in the assay with M19-MEL melanoma and in the assay on HS 578T breast was greater than 100 µM each time.
Take `N[C@@H]1CCCC[C@@H]1N.O=P([O-])([O-])CN(CP(=O)([O-])[O-])CP(=O)([O-])[O-].[Pt+2]`: the GI50 with SNB-78 CNS, in the assay on KM20L2 colon, in the assay with DMS 273 small cell lung, in the assay on LXFL 529 NSCLC and in the assay with M19-MEL melanoma was greater than 100 µM in each case. Moreover, the TGI in the assay with SNB-78 CNS, with KM20L2 colon, in the assay on DMS 273 small cell lung, in the assay with LXFL 529 NSCLC and with M19-MEL melanoma was greater than 100 µM throughout.
`FC1OC2OC1C(OCc1ccccc1)C(OCc1ccccc1)C2OCc1ccccc1` (configuration not stated): the TGI in the assay with SNB-78 CNS, in the assay on KM20L2 colon, in the assay on DMS 273 small cell lung, with LXFL 529 NSCLC and with M19-MEL melanoma was greater than 100 µM in each case.
For `CN(C=O)/C=C/c1cc(O)ccc1O`, the TGI with SNB-78 CNS is 56.2 µM; with KM20L2 colon it was greater than 62.4 µM; in the assay with DMS 273 small cell lung it was greater than 54.3 µM; in the assay on LXFL 529 NSCLC, 33.6 µM; with M19-MEL melanoma it was 44.9 µM.
The corresponding values for `COc1cccc(NC(=O)C(=O)C(C(C)=O)c2nc3ccc(Cl)cc3[nH]c2=O)c1` (configuration not stated) are greater than 100 µM, greater than 100 µM, greater than 100 µM, greater than 100 µM and greater than 100 µM.
The corresponding values for `CCOC(=O)[C@H]1Nc2ccccc2C2c3ccccc3CC21` (some centres not stated) are greater than 100 µM, greater than 100 µM, greater than 100 µM, greater than 100 µM and greater than 100 µM.

For the origin of these results see PubChem BioAssay (NCI).
